# Results reported in patent US20220257592A1, “METHODS OF TREATING CANCER” (HOFFMANN-LA ROCHE INC., priority 2019, published 2022).
# Legend:
# [1] = target: cytochrome P450 3A4 (CYP3A4) (Homo sapiens, UniProt P08684); assay: In vitro metabolism studies; format: in vitro ADME
# [2] = Expanded safety population (338 adult and 30 pediatric patients), fractures; format: in vivo, human
# Description: In adult patients, some fractures occurred in the setting of a fall or other trauma to the affected area, while in pediatric patients, all fractures occurred in patients with minimal or no trauma. In general, there was inadequate assessment for tumor involvement at the site of fracture; however, radiologic abnormalities possibly indicative of tumor involvement were reported in some patients. In both adult and pediatric patients, most fractures were hip or other lower extremity fractures (e.g., femoral or tibial shaft). In a limited number of patients, bilateral femoral neck fractures occurred. The median time to fracture was 3.8 months (range 0.3 to 18.5 months) in adults and 4.0 months (range: 1.8 months to 7.4 months) in pediatric patients.
# TrkB = TrkB (Homo sapiens, UniProt Q16620); settings: cited from earlier work
smiles,measurement,setting,value
"CN1CCN(c2ccc(C(=O)Nc3n[nH]c4ccc(Cc5cc(F)cc(F)c5)cc34)c(NC3CCOCC3)c2)CC1 [Entrectinib, N-[5-(3,5-difluorobenzyl)-1H-indazol-3-yl]-4-(4-methyl-piperazin-1-yl)-2-(tetrahydro-pyran-4-ylamino)-benzamide]",CYP3A4 substrate status,[1],sensitive substrate of CYP3A4
same,route of clearance,[1]; in vitro studies,predominantly through hepatic metabolism
same,share of metabolism by CYP3A4,[1]; in vitro studies,~76%
same,Fractures,[2]; 30 pediatric patients,23%
same,Fractures,[2]; 338 adult patients,5%
same,Entrectinib interrupted due to fractures,[2]; adults,41%
same,Median time to fracture,"[2]; adults, range 0.3 to 18.5 months",3.8 months
same,Discontinuation due to fractures,"[2]; human, in vivo",No patients discontinued
same,Risk of fractures,"[2]; human, in vivo",increases the risk of fractures
same,Entrectinib interrupted due to fractures,[2]; pediatric patients,43%
same,Median time to fracture,"[2]; pediatric patients, range: 1.8 months to 7.4 months",4.0 months
same,inhibition of TrkB tyrosine kinase,TrkB,potent inhibitor
